We go through one molecule from patent US4321196A, “Bis-esters of methanediol with acetonides of ampicillin or amoxicillin and penicillanic acid 1,1-dioxide” (Pfizer Inc., priority 1981, dated 1982).

The data set is described as follows: Serum half-life comparison of Compound I with Compound II in fasted rats, and general statements on absorption and half-life. It is filed as in vivo. As to conditions: 20 mg/kg oral, versus Compound II (Y=H). The method, then:
Since the object of the present invention is to provide a single well-absorbed source of ampicillin/amoxicillin and penicillanic acid 1,1-dioxide in serum, the compounds of the present invention are also evaluated by determination of the serum levels of these derived compounds in experimental animals, such as laboratory rats. The serum level results in fasted rats following the oral administration of 20 mg./kg. of 6'-(2,2-dimethyl-4-phenyl-5-imidazolidinon-1-yl)-penicillanoyloxymethyl penicillanate 1,1-dioxide (I, Y=H) are shown in Table I. In this test, 6'-(2-amino-2-phenylacetamido)penicillanoyloxymethyl penicillanate 1,1-dioxide (II, Y=H) at the same oral dosage has been used as control. The blood level of ampicillin was determined by standard plate bioassay methods, using Sarcina lutea 07A001 on Seed agar. For determination of penicillanic acid 1,1-dioxide, Pasturella 59B010 on MH agar was employed. It will be noted there is an approximately 50% improvement in the half-life of Compound I (Y=H) over Compound II (Y=H).

Structures are written as SMILES.

As to `CC1(C)S[C@@H]2[C@H](N3C(=O)[C@@H](c4ccccc4)NC3(C)C)C(=O)N2[C@H]1C(=O)OCOC(=O)[C@@H]1N2C(=O)C[C@H]2S(=O)(=O)C1(C)C` [Compound I (Y = H), 6'-(2,2-Dimethyl-4-phenyl-5-imidazolidinon-1-yl)-penicillanoyloxymethyl Penicillanate 1,1-Dioxide], the “Improvement in the half-life over Compound II (Y=H)” value is given as “approximately 50%”.
